US7470711B2, “Piperidinyl substituted cyclohexane-1,4-diamines” (Janssen Pharmaceutica N.V., priority 2005, dated 2008)
Where two headings read alike, the source gives them in different places.

How the values were obtained:
[1] = biological target: T1, α1d-AR (Homo sapiens, UniProt P25100); assay: α1-Adrenergic receptor radio-ligand binding assay, α1d subtype
T1 construct: expressed in transfected cells; host or cells: COS-7 cells (membranes)
T1 sequence (P25100 1-572): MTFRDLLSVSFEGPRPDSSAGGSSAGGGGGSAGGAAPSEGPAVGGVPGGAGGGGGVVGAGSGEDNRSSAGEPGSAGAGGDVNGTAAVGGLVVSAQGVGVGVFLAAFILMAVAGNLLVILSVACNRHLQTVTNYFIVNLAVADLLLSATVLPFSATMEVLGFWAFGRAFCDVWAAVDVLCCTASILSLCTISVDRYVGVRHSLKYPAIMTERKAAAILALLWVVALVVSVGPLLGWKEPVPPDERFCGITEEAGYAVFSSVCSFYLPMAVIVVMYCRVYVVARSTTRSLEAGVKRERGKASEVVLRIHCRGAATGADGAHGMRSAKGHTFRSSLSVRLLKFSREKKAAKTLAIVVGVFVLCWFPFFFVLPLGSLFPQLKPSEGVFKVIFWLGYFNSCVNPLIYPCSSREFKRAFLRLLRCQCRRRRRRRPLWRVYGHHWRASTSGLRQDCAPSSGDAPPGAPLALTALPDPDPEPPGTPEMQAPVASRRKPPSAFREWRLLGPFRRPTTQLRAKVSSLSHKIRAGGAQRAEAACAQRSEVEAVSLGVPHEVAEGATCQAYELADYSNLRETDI
Method: (§1) Membranes were prepared from COS-7 cells (African Green monkey kidney SV40-transformed cells) that had been transfected with one of the three α1-AR subtypes (Genbank accession number for the α1a subtype: AF013261; Genbank accession number for the α1b subtype: NM000679; Genbank accession number for the α1d subtype: NM000678) using the following method: COS cells from ten 100 mm tissue culture plates were scraped into a 5 mL volume of TE (a mixture of 50 mM Tris-HCl, 5 mM EDTA, pH 7.4). […] The disrupted cells were centrifuged at 1000×g for 10 min at 4° C. Supernatants were centrifuged at 34,500×g for 20 min at 4° C. The membrane pellets were suspended in a 2 mL volume of TNE (a mixture of 50 mM Tris-HCl, 5 mM EDTA and 150 mM NaCl at pH 7.4). An aliquot of the membrane suspension was stored at −70° C. until use. The protein concentration was determined using the BioRad “DC” protein assay kit following membrane solubilization with Triton X-100.
(§2) Triplicate determinations of radio-ligand binding in the presence of increasing concentrations of testing compound were made. The reagents were added to 96-well polypropylene plate wells. […] The plate was incubated at rt for 1 hr. The contents of the wells were filtered through a glass filter (type C) (GF/C) membrane Unifilter plate (Packard Instruments) using the Packard Filtermate cell harvester. The filter plates were dried in a vacuum oven for 30 min at 40° C. 25 μL Microscint 20 liquid scintillation fluid (Packard Instuments) was added to each well. The radioactive content was analyzed in the TopCount microplate scintillation counter (Packard Instruments).

[2] = biological target: T2, α1a-AR (Homo sapiens, UniProt P35348); assay: α1-Adrenergic receptor radio-ligand binding assay, α1a subtype
T2 construct: expressed in transfected cells; host or cells: COS-7 cells (membranes)
T2 sequence (P35348 1-455 isoform P35348-4): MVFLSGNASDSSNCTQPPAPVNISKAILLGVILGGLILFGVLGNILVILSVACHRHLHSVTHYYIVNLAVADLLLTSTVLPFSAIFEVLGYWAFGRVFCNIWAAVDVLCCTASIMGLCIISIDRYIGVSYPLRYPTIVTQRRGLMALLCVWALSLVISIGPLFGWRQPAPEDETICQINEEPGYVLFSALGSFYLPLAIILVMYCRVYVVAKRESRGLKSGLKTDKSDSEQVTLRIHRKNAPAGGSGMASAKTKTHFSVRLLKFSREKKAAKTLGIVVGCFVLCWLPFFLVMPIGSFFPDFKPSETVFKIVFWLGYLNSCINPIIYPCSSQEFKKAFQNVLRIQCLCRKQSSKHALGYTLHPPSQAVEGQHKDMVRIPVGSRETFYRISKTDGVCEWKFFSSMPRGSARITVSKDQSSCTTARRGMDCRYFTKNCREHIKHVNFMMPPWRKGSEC
Method: as §1, §2

[3] = biological target: T3, α1b-AR (Homo sapiens, UniProt P35368); assay: α1-Adrenergic receptor radio-ligand binding assay, α1b subtype
T3 construct: expressed in transfected cells; host or cells: COS-7 cells (membranes)
T3 sequence (P35368 1-520): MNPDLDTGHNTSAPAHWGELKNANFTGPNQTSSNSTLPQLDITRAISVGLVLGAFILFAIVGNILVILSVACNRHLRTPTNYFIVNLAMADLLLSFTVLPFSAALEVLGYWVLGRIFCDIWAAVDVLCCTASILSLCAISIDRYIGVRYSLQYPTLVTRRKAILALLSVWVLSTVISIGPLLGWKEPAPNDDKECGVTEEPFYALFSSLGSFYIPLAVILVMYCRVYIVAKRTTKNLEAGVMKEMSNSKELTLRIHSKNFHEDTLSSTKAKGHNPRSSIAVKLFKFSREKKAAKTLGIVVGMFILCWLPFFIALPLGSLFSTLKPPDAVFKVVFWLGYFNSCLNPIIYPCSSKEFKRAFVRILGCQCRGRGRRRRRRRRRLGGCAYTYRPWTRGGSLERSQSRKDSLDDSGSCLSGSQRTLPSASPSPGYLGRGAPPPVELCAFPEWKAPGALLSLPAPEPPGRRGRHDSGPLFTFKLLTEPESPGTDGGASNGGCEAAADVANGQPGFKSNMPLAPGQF
Method: as §1, §2

[4] = 125I-HEAT, membranes of COS-7 cells transfected with α1d subtype, rt 1 hr, read-out: Receptor Binding, Ki α1d-AR
[5] = 125I-HEAT, membranes of COS-7 cells transfected with α1a subtype, rt 1 hr, read-out: Receptor Binding, Ki α1a-AR
[6] = 125I-HEAT, membranes of COS-7 cells transfected with α1b subtype, rt 1 hr, read-out: Receptor Binding, Ki α1b-AR
[7] = read-out: Receptor Binding, Ki α1a-AR

Structure (SMILES): COc1ccc(Cl)cc1S(=O)(=O)N[C@H]1CC[C@@H](N2CCC(c3ccccc3OC3CC3)CC2)CC1 [Cpd 9, 5-chloro-N-cis-{4-[4-(2-cyclopropoxy-phenyl)-piperidin-1-yl]-cyclohexyl}-2-methoxy-benzenesulfonamide]
- Ki [1, 4]: 2.6 nM
- Ki [2, 5]: 1.3 nM
- Ki [3, 6]: 82 nM

Structure (SMILES): O=S(=O)(N[C@H]1CC[C@@H](N2CCC(c3ccccc3OC3CC3)CC2)CC1)c1cc(Cl)ccc1F [Cpd 11, 5-chloro-N-cis-{4-[4-(2-cyclopropoxy-phenyl)-piperidin-1-yl]-cyclohexyl}-2-fluoro-benzenesulfonamide]
- Ki [1, 4]: 2.1 nM
- Ki [2, 5]: 1.8 nM
- Ki [3, 6]: 107 nM

Structure (SMILES): COc1ccc(S(=O)(=O)N[C@H]2CC[C@@H](N3CCC(c4cc(F)ccc4OC(C)C)CC3)CC2)cc1OC [Cpd 33, N-cis-{4-[4-(5-fluoro-2-isopropoxy-phenyl)-piperidin-1-yl]-cyclohexyl}-3,4-dimethoxy-benzenesulfonamide]
- Ki [1, 4]: 1.6 nM
- Ki [2, 7]: 3.3 nM
- Ki [3, 6]: 299 nM

Structure (SMILES): O=S(=O)(N[C@H]1CC[C@@H](N2CCC(c3ccccc3OC3CC3)CC2)CC1)c1ccc(Cl)cc1Cl [Cpd 15, 2,4-dichloro-N-cis-{4-[4-(2-cyclopropoxy-phenyl)-piperidin-1-yl]-cyclohexyl}-benzenesulfonamide]
- Ki [1, 4]: 6.1 nM
- Ki [2, 5]: 79 nM
- Ki [3, 6]: 839 nM

Structure (SMILES): O=S(=O)(N[C@H]1CC[C@H](N2CCC(c3ccccc3OC3CC3)CC2)CC1)c1ccc2c(c1)OCO2 [Cpd 22, benzo[1,3]dioxole-5-sulfonic acid trans-{4-[4-(2-cyclopropoxy-phenyl)-piperidin-1-yl]-cyclohexyl}-amide]
- Ki [1]: 57 nM
- Ki [2]: 14 nM
- Ki [3]: 340 nM

Structure (SMILES): COc1ccc(S(=O)(=O)N[C@H]2CC[C@@H](N3CCC(c4ccc(F)cc4OC(C)C)CC3)CC2)cc1OC [Cpd 31, N-cis-{4-[4-(4-fluoro-2-isopropoxy-phenyl)-piperidin-1-yl]-cyclohexyl}-3,4-dimethoxy-benzenesulfonamide]
- Ki [1]: 12.4 nM
- Ki [2, 5]: 16 nM
- Ki [3, 6]: 690 nM

Structure (SMILES): COc1ccc(S(=O)(=O)N[C@H]2CC[C@H](N3CCC(c4ccccc4OC(C)C)CC3)CC2)cc1OC [Cpd 2, N-trans-{4-[4-(2-isopropoxy-phenyl)-piperidin-1-yl]-cyclohexyl}-3,4-dimethoxy-benzenesulfonamide]
- Ki [1, 4]: 40.2 nM
- Ki [2, 5]: 27.8 nM
- Ki [3, 6]: 148 nM

Structure (SMILES): O=S(=O)(N[C@H]1CC[C@@H](N2CCC(c3ccccc3OC3CC3)CC2)CC1)c1ccc2c(c1)OCO2 [Cpd 21, benzo[1,3]dioxole-5-sulfonic acid cis-{4-[4-(2-cyclopropoxy-phenyl)-piperidin-1-yl]-cyclohexyl}-amide]
- Ki [1]: 13 nM
- Ki [2]: 15.6 nM
- Ki [3]: 275 nM

Structure (SMILES): COc1ccc(S(=O)(=O)N[C@H]2CC[C@@H](N3CCC(c4ccccc4OC4CC4)CC3)CC2)cc1OC [Cpd 7, N-cis-{4-[4-(2-cyclopropoxy-phenyl)-piperidin-1-yl]-cyclohexyl}-3,4-dimethoxy-benzenesulfonamide]
- Ki [1, 4]: 2 nM
- Ki [2, 5]: 0.91 nM
- Ki [3, 6]: 141 nM

Structure (SMILES): COc1ccc(S(=O)(=O)N[C@H]2CC[C@H](N3CCC(c4ccccc4OCC(F)(F)F)CC3)CC2)cc1OC [Cpd 6, 3,4-dimethoxy-N-trans-(4-{4-[2-(2,2,2-trifluoro-ethoxy)-phenyl]-piperidin-1-yl}-cyclohexyl)-benzenesulfonamide]
- Ki [1]: 88.6 nM
- Ki [2]: 1.4 nM
- Ki [3]: 1380 nM

Structure (SMILES): COc1ccc(S(=O)(=O)N[C@H]2CC[C@H](N3CCC(c4ccc(F)cc4OC(C)C)CC3)CC2)cc1OC [Cpd 32, N-trans-{4-[4-(4-fluoro-2-isopropoxy-phenyl)-piperidin-1-yl]-cyclohexyl}-3,4-dimethoxy-benzenesulfonamide]
- Ki [1, 4]: 60 nM
- Ki [2, 5]: 23 nM
- Ki [3, 6]: 639 nM

Structure (SMILES): O=S(=O)(N[C@H]1CC[C@H](N2CCC(c3ccccc3OC3CC3)CC2)CC1)c1ccc(Cl)cc1Cl [Cpd 16, 2,4-dichloro-N-trans-{4-[4-(2-cyclopropoxy-phenyl)-piperidin-1-yl]-cyclohexyl}-benzenesulfonamide]
- Ki [1, 4]: 2.4 nM
- Ki [2, 5]: 30.4 nM
- Ki [3, 6]: 411 nM

Structure (SMILES): O=S(=O)(N[C@H]1CC[C@H](N2CCC(c3ccccc3OC3CC3)CC2)CC1)c1cc(Cl)ccc1F [Cpd 12, 5-chloro-N-trans-{4-[4-(2-cyclopropoxy-phenyl)-piperidin-1-yl]-cyclohexyl}-2-fluoro-benzenesulfonamide]
- Ki [1, 4]: 32 nM
- Ki [2, 5]: 3.8 nM
- Ki [3, 6]: 337 nM

Structure (SMILES): COc1ccc(S(=O)(=O)N[C@H]2CC[C@@H](N3CCC(c4ccccc4OC(C)C)CC3)CC2)cc1OC [Cpd 1, N-cis-{4-[4-(2-isopropoxy-phenyl)-piperidin-1-yl]-cyclohexyl}-3,4-dimethoxy-benzenesulfonamide]
- Ki [1]: 1.8 nM
- Ki [2]: 1.2 nM
- Ki [3, 6]: 144 nM

Structure (SMILES): COc1ccc(S(=O)(=O)N[C@H]2CC[C@H](N3CCC(c4cc(F)ccc4OC(C)C)CC3)CC2)cc1OC [Cpd 34, N-trans-{4-[4-(5-fluoro-2-isopropoxy-phenyl)-piperidin-1-yl]-cyclohexyl}-3,4-dimethoxy-benzenesulfonamide]
- Ki [1, 4]: 53 nM
- Ki [2, 7]: 43 nM
- Ki [3, 6]: 1490 nM

Structure (SMILES): COc1ccc(S(=O)(=O)N[C@H]2CC[C@@H](N3CCC(c4ccccc4OCC(F)(F)F)CC3)CC2)cc1OC [Cpd 5, 3,4-dimethoxy-N-cis-(4-{4-[2-(2,2,2-trifluoro-ethoxy)-phenyl]-piperidin-1-yl}-cyclohexyl)-benzenesulfonamide]
- Ki [1]: 7.3 nM
- Ki [2]: 3 nM
- Ki [3]: 470 nM

Structure (SMILES): COc1ccc(Cl)cc1S(=O)(=O)N[C@H]1CC[C@H](N2CCC(c3ccccc3OC3CC3)CC2)CC1 [Cpd 10, 5-chloro-N-trans-{4-[4-(2-cyclopropoxy-phenyl)-piperidin-1-yl]-cyclohexyl}-2-methoxy-benzenesulfonamide]
- Ki [1, 4]: 47 nM
- Ki [2, 5]: 4.5 nM
- Ki [3, 6]: 305 nM

Structure (SMILES): COc1ccc(S(=O)(=O)N[C@H]2CC[C@H](N3CCC(c4ccccc4OC4CC4)CC3)CC2)cc1OC [Cpd 8, N-trans-{4-[4-(2-cyclopropoxy-phenyl)-piperidin-1-yl]-cyclohexyl}-3,4-dimethoxy-benzenesulfonamide]
- Ki [1]: 33.6 nM
- Ki [2]: 10.8 nM
- Ki [3, 6]: 133 nM
